One experiment addresses T1, TLR7 (Homo sapiens, UniProt Q9NYK1).
T1 construct: Human peripheral blood mononuclear cells (PBMCs) consist of lymphocytes, monocytes and dendritic cells that express TLR7, TLR8 and TLR9; endogenous in cells; host or cells: cryopreserved human PBMCs from healthy donors
T1 sequence (Q9NYK1 27-1049): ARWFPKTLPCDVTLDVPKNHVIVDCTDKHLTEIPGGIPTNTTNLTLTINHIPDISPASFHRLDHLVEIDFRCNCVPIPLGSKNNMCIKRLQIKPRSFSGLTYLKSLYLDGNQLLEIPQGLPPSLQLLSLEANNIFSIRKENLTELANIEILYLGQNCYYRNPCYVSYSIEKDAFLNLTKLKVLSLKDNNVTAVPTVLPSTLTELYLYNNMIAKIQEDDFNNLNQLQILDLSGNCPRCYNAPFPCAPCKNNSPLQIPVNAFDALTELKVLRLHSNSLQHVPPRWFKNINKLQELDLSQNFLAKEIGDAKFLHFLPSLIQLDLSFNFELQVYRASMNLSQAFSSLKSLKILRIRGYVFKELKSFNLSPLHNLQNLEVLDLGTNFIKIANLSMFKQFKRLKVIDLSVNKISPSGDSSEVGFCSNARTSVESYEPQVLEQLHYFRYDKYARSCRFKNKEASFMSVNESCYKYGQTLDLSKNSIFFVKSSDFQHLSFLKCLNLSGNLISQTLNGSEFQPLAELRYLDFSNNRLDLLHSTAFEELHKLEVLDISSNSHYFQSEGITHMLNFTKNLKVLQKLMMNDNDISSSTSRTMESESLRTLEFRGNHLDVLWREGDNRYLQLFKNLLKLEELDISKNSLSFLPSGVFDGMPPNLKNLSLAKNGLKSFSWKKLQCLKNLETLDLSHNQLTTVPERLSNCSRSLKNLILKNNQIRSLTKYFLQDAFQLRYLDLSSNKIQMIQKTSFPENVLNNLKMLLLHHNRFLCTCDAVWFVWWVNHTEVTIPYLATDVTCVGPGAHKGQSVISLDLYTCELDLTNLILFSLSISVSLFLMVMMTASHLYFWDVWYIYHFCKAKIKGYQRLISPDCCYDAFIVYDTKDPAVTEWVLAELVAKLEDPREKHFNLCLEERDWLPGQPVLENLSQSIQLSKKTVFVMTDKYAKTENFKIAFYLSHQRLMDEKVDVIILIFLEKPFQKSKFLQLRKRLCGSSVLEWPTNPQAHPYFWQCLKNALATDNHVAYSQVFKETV
Briefly: TLR7 human PBMC cell-based assay (antagonist, GS-986 stimulated cytokine release). Conditions: human PBMCs; TLR7 agonist GS-986 400 nM, 6 hours; cytokines (IL-6 and IFNα) in supernatant; read-out: TLR-7 EC50. Put shortly: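 Cryopreserved healthy-donor PBMCs (100,000/well, RPMI-1640 + 10% FBS) pre-incubated 1 h at 37 °C with antagonist (10-point dose response, quadruplicate), then stimulated 6 h with GS-986 at 400 nM final. Supernatant IL-6 and IFNα measured by electrochemiluminescence immunoassay; EC50 from sigmoidal fit.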

In another experiment the target is T2, TLR8 (Homo sapiens, UniProt Q9NR97).
T2 construct: Human peripheral blood mononuclear cells (PBMCs) consist of lymphocytes, monocytes and dendritic cells that express TLR7, TLR8 and TLR9; endogenous in cells; host or cells: cryopreserved human PBMCs from healthy donors
T2 sequence (Q9NR97 27-1041): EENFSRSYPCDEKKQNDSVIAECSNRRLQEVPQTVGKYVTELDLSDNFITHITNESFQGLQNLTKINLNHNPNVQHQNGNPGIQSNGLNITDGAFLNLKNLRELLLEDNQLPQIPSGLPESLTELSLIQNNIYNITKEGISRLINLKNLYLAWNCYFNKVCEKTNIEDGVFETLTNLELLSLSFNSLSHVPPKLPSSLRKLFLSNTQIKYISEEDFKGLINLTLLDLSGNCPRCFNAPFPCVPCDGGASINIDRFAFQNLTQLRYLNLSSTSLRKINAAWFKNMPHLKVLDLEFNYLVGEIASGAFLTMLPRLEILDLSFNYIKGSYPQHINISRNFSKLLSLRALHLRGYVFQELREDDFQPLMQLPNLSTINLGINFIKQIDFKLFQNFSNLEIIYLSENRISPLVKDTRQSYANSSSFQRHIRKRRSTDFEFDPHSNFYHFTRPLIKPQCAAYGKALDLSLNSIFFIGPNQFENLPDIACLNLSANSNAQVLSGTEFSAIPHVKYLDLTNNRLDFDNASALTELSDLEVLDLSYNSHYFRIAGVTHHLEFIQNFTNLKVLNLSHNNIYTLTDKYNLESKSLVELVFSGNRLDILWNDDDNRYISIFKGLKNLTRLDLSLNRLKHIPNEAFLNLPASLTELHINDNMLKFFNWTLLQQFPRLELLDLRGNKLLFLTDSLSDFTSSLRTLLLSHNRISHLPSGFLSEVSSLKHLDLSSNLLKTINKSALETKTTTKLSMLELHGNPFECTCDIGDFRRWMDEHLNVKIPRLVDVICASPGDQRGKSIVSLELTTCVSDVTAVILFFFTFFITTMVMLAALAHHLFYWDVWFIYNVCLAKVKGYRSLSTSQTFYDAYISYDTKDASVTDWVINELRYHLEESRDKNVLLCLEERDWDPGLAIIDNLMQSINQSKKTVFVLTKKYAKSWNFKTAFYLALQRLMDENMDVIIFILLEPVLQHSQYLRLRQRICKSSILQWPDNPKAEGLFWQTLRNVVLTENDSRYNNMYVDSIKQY
Kind of experiment: TLR8 human PBMC cell-based assay (antagonist, Compound A stimulated cytokine release). The settings on record: human PBMCs; TLR8 agonist Compound A 800 nM, 6 hours; cytokines (TNFa and IL 12p40) in supernatant; read-out: TLR-8 EC50. Put shortly: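 Cryopreserved donor PBMCs (100,000/well, RPMI + 10% FBS) were preincubated 1 h with antagonist (10-point dose response, quadruplicate), then stimulated with Compound A (800 nM final) for 6 h at 37 °C. TNFa and IL-12p40 in supernatants were measured by electrochemiluminescence; sigmoidal fits gave EC50.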

Consider `Cc1cc(-c2[nH]c3cc(C4CCCC5(CNC5)C4)sc3c2C(C)C)cn2ncnc12` (stereo not drawn) [Example 159], for which the EC50 on TLR7 is 1.2 nM; on TLR8, 37.5 nM.
The like results for `Cc1cc(-c2[nH]c3cc(C4CCC5(CC4)CNC5)sc3c2C(C)C)cn2ncnc12` [Example 160] were, in that order, 0.4 nM and 7.1 nM.
The matching figures for `Cc1cc(-c2[nH]c3cc(C4CCNC4)sc3c2C(C)C)cn2ncnc12` (stereo not drawn) [Example 161]: 9.6 nM and 12.4 nM.
Take `Cc1cc(-c2[nH]c3cc(C4CCC5(CNC5)C4)sc3c2C(C)C)cn2ncnc12` (stereo not drawn) [Example 162]: the figures for the concentration for a half-maximal effect (EC50) at TLR7 and on TLR8 were 0.6 nM and 11.2 nM, respectively.
On to `Cc1cc(-c2[nH]c3cc(C4CCN(CC(N)=O)CC4)sc3c2C(C)C)cn2ncnc12` [Example 164, 2-[4-[6-isopropyl-5-(8-methyl-[1,2,4]triazolo[1,5-a]pyridin-6-yl)-4H-thieno[3,2-b]pyrrol-2-yl]-1-piperidyl]acetamide], for which the EC50 on TLR7 worked out at 1.5 nM; at TLR8 it was 2.8 nM.
Take `Cc1cc(-c2[nH]c3cc(C4=NC5(CCN(CC(N)=O)CC5)CO4)sc3c2C(C)C)cn2ncnc12` [Example 165]: the EC50 at TLR7 is 1.7 nM; on TLR8 it was 116 nM.
On to `Cc1cc(-c2[nH]c3cc(-c4nc(C5CCN(CC(N)=O)CC5)no4)sc3c2C(C)C)cn2ncnc12` [Example 166], for which the EC50 on TLR7 and at TLR8 was 5.1 nM in each case.
On to `Cc1cc(-c2[nH]c3cc(C(=O)N(C4CCC4)C4CCN(CC(N)=O)CC4)sc3c2C(C)C)cn2ncnc12` [Example 167], for which the EC50 at TLR7 amounted to 14 nM; on TLR8, 52.7 nM.
Consider `Cc1cc(-c2[nH]c3cc(-c4nnc(C5CCN(CC(N)=O)CC5)s4)sc3c2C(C)C)cn2ncnc12` [Example 168], for which the EC50 came to 2.7 nM at TLR7 and 2.8 nM at TLR8.
The like results for `CCc1c(-c2cc(C)c3ncnn3c2)[nH]c2cc(-c3nc4ccc(N5CCN(CC(N)=O)CC5)cc4[nH]3)sc12` [Example 169] were, in that order, 146 nM and 72 nM.
Consider `Cc1cc(-c2[nH]c3cc(-c4ccc5nc(C6[C@H]7CC[C@H](C7)N6CC(N)=O)[nH]c5c4)sc3c2C(C)C)cn2ncnc12` (stereo partly drawn) [Example 170], for which the EC50 was 1.2 nM on TLR7 and 10.5 nM on TLR8.
The like results for `Cc1cc(-c2[nH]c3cc(C4CCCN(CC(N)=O)C4)sc3c2C(C)C)cn2ncnc12` (stereo not drawn) [Example 171] were, in that order, 24.5 nM and 14.6 nM.
The like results for `Cc1cc(-c2[nH]c3cc(-c4cnn(C5CCN(CC(N)=O)CC5)c4)sc3c2C(C)C)cn2ncnc12` [Example 172] were, in that order, 13.5 nM and 6 nM.
The like results for `Cc1cc(-c2[nH]c3cc(-c4cnc5c(c4)CN(CC(N)=O)CC5)sc3c2C(C)C)cn2ncnc12` [Example 173] were, in that order, 8 nM and 4.8 nM.
Consider `Cc1cc(-c2[nH]c3cc(C(=O)N(C)CC4CCN(CC(N)=O)CC4)sc3c2C(C)C)cn2ncnc12` [Example 174], for which the EC50 on TLR7 turned out to be 11.4 nM; on TLR8, 16.8 nM.
Turning to `Cc1cc(-c2[nH]c3cc(C(=O)N4CCC5(CCN(CC(N)=O)C5)CC4)sc3c2C(C)C)cn2ncnc12` [Example 175], the EC50 was determined as 0.8 nM on TLR7 and 4.1 nM at TLR8.
The matching figures for `Cc1cc(-c2[nH]c3cc(C(=O)N4CCC5(CCN(CC(N)=O)CC5)C4)sc3c2C(C)C)cn2ncnc12` [Example 176]: 6.5 nM and 22.2 nM.
The like results for `Cc1cc(-c2[nH]c3cc(C4CCC5(CC4)CN(CC(N)=O)C5)sc3c2C(C)C)cn2ncnc12` [Example 177] were, in that order, 0.2 nM and 1 nM.
The matching figures for `Cc1cc(-c2[nH]c3cc(C(=O)N(C)C4CCN(CC(N)=O)CC4)sc3c2C(C)C)cn2ncnc12` [Example 178]: 1.3 nM and 17.4 nM.
As to `Cc1cc(-c2[nH]c3cc(C(=O)N(C)[C@H]4CCN(CC(N)=O)C4)sc3c2C(C)C)cn2ncnc12` [Example 179], the concentration giving a half-maximal response (EC50) on TLR7 was determined as 12.5 nM; at TLR8, 33 nM.
As to `Cc1cc(-c2[nH]c3cc(C(=O)N(C)C4CCN(C(=O)CN(C)C)CC4)sc3c2C(C)C)cn2ncnc12` [Example 180], the values for the EC50 at TLR7 and on TLR8 were 0.7 nM and 11.5 nM, respectively.
The matching figures for `Cc1cc(-c2[nH]c3cc(C4CCN(C(=O)CN(C)C)CC4)sc3c2C(C)C)cn2ncnc12` [Example 181]: 1 nM and 7.7 nM.
The matching figures for `Cc1cc(-c2[nH]c3cc(C(=O)N(C)C4CCN(CC#N)CC4)sc3c2C(C)C)cn2ncnc12` [Example 182]: 8.8 nM and 40.2 nM.
The like results for `Cc1cc(-c2[nH]c3cc(C(=O)N(C)C4CCN(CCC#N)CC4)sc3c2C(C)C)cn2ncnc12` [Example 183] were, in that order, 17.5 nM and 32.4 nM.
Take `Cc1cc(-c2[nH]c3cc(C4CCN(S(=O)(=O)C5CCNCC5)CC4)sc3c2C(C)C)cn2ncnc12` [Example 184]: the values for the EC50 at TLR7 and at TLR8 were 0.2 nM and 2.8 nM, respectively.
Regarding `Cc1cc(-c2[nH]c3cc(C4CCC5(CC4)CN(C(=O)CN(C)C)C5)sc3c2C(C)C)cn2ncnc12` [Example 185], the values for the EC50 on TLR7 and on TLR8 were 0.2 nM and 8.7 nM, respectively.
The matching figures for `Cc1cc(-c2[nH]c3cc(C4CCN(CC5(C)COC5)CC4)sc3c2C(C)C)cn2ncnc12` [Example 186, 6-isopropyl-5-(8-methyl-[1,2,4]triazolo[1,5-a]pyridin-6-yl)-2-(1-((3-methyloxetan-3-yl)methyl)piperidin-4-yl)-4H-thieno[3,2-b]pyrrole]: 2.1 nM and 3.1 nM.
The matching figures for `Cc1cc(-c2[nH]c3cc(C4CCN(CCO)CC4)sc3c2C(C)C)cn2ncnc12` [Example 187, 2-(4-(6-isopropyl-5-(8-methyl-[1,2,4]triazolo[1,5-a]pyridin-6-yl)-4H-thieno[3,2-b]pyrrol-2-yl)piperidin-1-yl)ethan-1-ol]: 1.6 nM and 0.6 nM.
In the case of `Cc1cc(-c2[nH]c3cc(-c4ccc5c(c4)CN(CCO)CC5)sc3c2C(C)C)cn2ncnc12` [Example 188], the concentration giving a half-maximal response (EC50) came to 1.3 nM at TLR7 and 0.3 nM on TLR8.
The like results for `Cc1cc(-c2[nH]c3cc(-c4cnn(C5CCN(CCO)CC5)c4)sc3c2C(C)C)cn2ncnc12` [Example 189] were, in that order, 1.3 nM and 0.7 nM.

As a reminder, the EC50 is the concentration needed to bring the measured effect to its halfway point.

For the origin of these results see patent publication US20240217990A1 (Gilead Sciences, Inc., priority 2021, published 2024).
